Source: PubChem BioAssay (NCI)
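Method: 48-hour compound exposure of cells in 96-well plates, five concentrations, linear interpolation of endpoints. Abbreviation: GI50, concentration required for 50% inhibition of growth. Definition used: TGI = concentration required for complete inhibition of growth.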

Columns and labels:
Assay in all cases: NCI tumour cell line growth inhibition, 48 h
SK-MEL-28 melanoma = tested on: SK-MEL-28 melanoma
KM12 colon = tested on: KM12 colon
SN12C renal = tested on: SN12C renal
OVCAR-5 ovarian = tested on: OVCAR-5 ovarian
SNB-19 CNS = tested on: SNB-19 CNS
EKVX NSCLC = tested on: EKVX NSCLC
MALME-3M melanoma = tested on: MALME-3M melanoma
SK-MEL-5 melanoma = tested on: SK-MEL-5 melanoma
M14 melanoma = tested on: M14 melanoma
MDA-MB-468 breast = tested on: MDA-MB-468 breast
OVCAR-4 ovarian = tested on: OVCAR-4 ovarian
SF-295 CNS = tested on: SF-295 CNS
SK-MEL-2 melanoma = tested on: SK-MEL-2 melanoma
NCI-H23 lung = tested on: NCI-H23 lung
MOLT-4 leukemia = tested on: MOLT-4 leukemia
DU-145 prostate = tested on: DU-145 prostate
HS 578T breast = tested on: HS 578T breast
UACC-62 melanoma = tested on: UACC-62 melanoma
LOX IMVI melanoma = tested on: LOX IMVI melanoma
NCI/ADR-RES ovarian = tested on: NCI/ADR-RES ovarian
CCRF-CEM leukemia = tested on: CCRF-CEM leukemia
PC-3 prostate = tested on: PC-3 prostate
OVCAR-3 ovarian = tested on: OVCAR-3 ovarian
A498 renal = tested on: A498 renal
SF-268 CNS = tested on: SF-268 CNS
UO-31 renal = tested on: UO-31 renal
NCI-H460 lung = tested on: NCI-H460 lung
IGROV1 ovarian = tested on: IGROV1 ovarian
786-0 renal = tested on: 786-0 renal
HCC-2998 colon = tested on: HCC-2998 colon
TK-10 renal = tested on: TK-10 renal
SNB-75 CNS = tested on: SNB-75 CNS
HCT-116 colon = tested on: HCT-116 colon
NCI-H522 lung = tested on: NCI-H522 lung
ACHN renal = tested on: ACHN renal
HOP-62 NSCLC = tested on: HOP-62 NSCLC
RPMI-8226 leukemia = tested on: RPMI-8226 leukemia
U251 CNS = tested on: U251 CNS
MDA-MB-435 = tested on: MDA-MB-435
NCI-H226 lung = tested on: NCI-H226 lung
SF-539 CNS = tested on: SF-539 CNS
T-47D breast = tested on: T-47D breast
OVCAR-8 ovarian = tested on: OVCAR-8 ovarian
HCT-15 colon = tested on: HCT-15 colon
CAKI-1 renal = tested on: CAKI-1 renal
MDA-MB-231 breast = tested on: MDA-MB-231 breast
A549 NSCLC = tested on: A549 NSCLC
UACC-257 melanoma = tested on: UACC-257 melanoma
SK-OV-3 ovarian = tested on: SK-OV-3 ovarian
BT-549 breast = tested on: BT-549 breast
HOP-92 NSCLC = tested on: HOP-92 NSCLC
RXF 393 renal = tested on: RXF 393 renal

SMILES: COc1ccc2[nH]cc(-c3cc(N)n4nc(-c5c[nH]c6ccccc56)cc4n3)c2c1
- GI50 (SK-MEL-28 melanoma): 1.72 µM
- TGI (SK-MEL-28 melanoma): 3.1 µM
- GI50 (KM12 colon): 2.21 µM
- TGI (KM12 colon): 5.01 µM
- GI50 (SN12C renal): 10.1 µM
- TGI (SN12C renal): 22.8 µM
- GI50 (OVCAR-5 ovarian): 3.86 µM
- TGI (OVCAR-5 ovarian): 13.4 µM
- GI50 (SNB-19 CNS): 4.25 µM
- TGI (SNB-19 CNS): 14.8 µM
- GI50 (EKVX NSCLC): 3.93 µM
- TGI (EKVX NSCLC): 15.9 µM
- GI50 (MALME-3M melanoma): 1.7 µM
- TGI (MALME-3M melanoma): 3.07 µM
- GI50 (SK-MEL-5 melanoma): 1.7 µM
- TGI (SK-MEL-5 melanoma): 3.07 µM
- GI50 (M14 melanoma): 1.79 µM
- TGI (M14 melanoma): 3.32 µM
- GI50 (MDA-MB-468 breast): 1.66 µM
- TGI (MDA-MB-468 breast): 3.12 µM
- GI50 (OVCAR-4 ovarian): 5.06 µM
- TGI (OVCAR-4 ovarian): 17.8 µM
- GI50 (SF-295 CNS): 1.83 µM
- TGI (SF-295 CNS): 3.55 µM
- GI50 (SK-MEL-2 melanoma): 1.83 µM
- TGI (SK-MEL-2 melanoma): 3.8 µM
- GI50 (NCI-H23 lung): 3.15 µM
- TGI (NCI-H23 lung): 10.2 µM
- GI50 (MOLT-4 leukemia): 2.25 µM
- TGI (MOLT-4 leukemia): 6.05 µM
- GI50 (DU-145 prostate): 5.19 µM
- TGI (DU-145 prostate): 19.3 µM
- GI50 (HS 578T breast): 6.69 µM
- TGI (HS 578T breast): > 100 µM
- GI50 (UACC-62 melanoma): 1.73 µM
- TGI (UACC-62 melanoma): 3.16 µM
- GI50 (LOX IMVI melanoma): 1.64 µM
- TGI (LOX IMVI melanoma): 3.01 µM
- GI50 (NCI/ADR-RES ovarian): 5.84 µM
- TGI (NCI/ADR-RES ovarian): 24 µM
- GI50 (CCRF-CEM leukemia): 2.6 µM
- TGI (CCRF-CEM leukemia): 6.46 µM
- GI50 (PC-3 prostate): 3.33 µM
- TGI (PC-3 prostate): 14.8 µM
- GI50 (OVCAR-3 ovarian): 3.27 µM
- TGI (OVCAR-3 ovarian): 16.6 µM
- GI50 (A498 renal): 11.4 µM
- TGI (A498 renal): 24.4 µM
- GI50 (SF-268 CNS): 9.09 µM
- TGI (SF-268 CNS): 37.3 µM
- GI50 (UO-31 renal): 1.86 µM
- TGI (UO-31 renal): 4.65 µM
- GI50 (NCI-H460 lung): 2.74 µM
- TGI (NCI-H460 lung): 7.59 µM
- GI50 (IGROV1 ovarian): 4.52 µM
- TGI (IGROV1 ovarian): 17 µM
- GI50 (786-0 renal): 1.57 µM
- TGI (786-0 renal): 3 µM
- GI50 (HCC-2998 colon): 1.77 µM
- TGI (HCC-2998 colon): 3.38 µM
- GI50 (TK-10 renal): 3.53 µM
- TGI (TK-10 renal): 12.1 µM
- GI50 (SNB-75 CNS): 11.2 µM
- TGI (SNB-75 CNS): 29.2 µM
- GI50 (HCT-116 colon): 1.75 µM
- TGI (HCT-116 colon): 3.12 µM
- GI50 (NCI-H522 lung): 1.64 µM
- TGI (NCI-H522 lung): 3.51 µM
- GI50 (ACHN renal): 2.62 µM
- TGI (ACHN renal): 6.99 µM
- GI50 (HOP-62 NSCLC): 3.14 µM
- TGI (HOP-62 NSCLC): 7.88 µM
- GI50 (RPMI-8226 leukemia): 2.37 µM
- TGI (RPMI-8226 leukemia): 5.51 µM
- GI50 (U251 CNS): 2.08 µM
- TGI (U251 CNS): 4.67 µM
- GI50 (MDA-MB-435): 2.04 µM
- TGI (MDA-MB-435): 4.11 µM
- GI50 (NCI-H226 lung): 11.5 µM
- TGI (NCI-H226 lung): 28 µM
- GI50 (SF-539 CNS): 1.68 µM
- TGI (SF-539 CNS): 3.05 µM
- GI50 (T-47D breast): 3.05 µM
- TGI (T-47D breast): 26.3 µM
- GI50 (OVCAR-8 ovarian): 4.12 µM
- TGI (OVCAR-8 ovarian): 33.3 µM
- GI50 (HCT-15 colon): 1.66 µM
- TGI (HCT-15 colon): 3.33 µM
- GI50 (CAKI-1 renal): 2.32 µM
- TGI (CAKI-1 renal): 6.44 µM
- GI50 (MDA-MB-231 breast): 1.91 µM
- TGI (MDA-MB-231 breast): 3.58 µM
- GI50 (A549 NSCLC): 3.14 µM
- TGI (A549 NSCLC): 13.9 µM
- GI50 (UACC-257 melanoma): 1.73 µM
- TGI (UACC-257 melanoma): 3.21 µM
- GI50 (SK-OV-3 ovarian): 15 µM
- TGI (SK-OV-3 ovarian): 33.1 µM
- GI50 (BT-549 breast): 13.3 µM
- TGI (BT-549 breast): 26.1 µM
- GI50 (HOP-92 NSCLC): 3.04 µM
- TGI (HOP-92 NSCLC): 11.9 µM
- GI50 (RXF 393 renal): 1.38 µM
- TGI (RXF 393 renal): 3.48 µM
